Reference: ChEMBL document CHEMBL3526141, “Characterization of human liver enzymes involved in the biotransformation of boceprevir, a hepatitis C virus protease inhibitor” (Drug Metab Dispos, 2011)

How the values were obtained:
[1] = Retention time of the compound by LC-MS/MS method; format: physicochemical
Plasma = assay: Drug metabolism in human plasma treated with [14C]boceprevir assessed as ratio of drug level by LC-MS/MS method relative to boceprevir; format: ADME, cell-free
Liver microsome = assay: Drug metabolism in human liver microsomes treated with 20 uM [14C]boceprevir assessed as compound formation by LC-MS/FSA method relative to total [14C]boceprevir; format: ADME
Cytochrome P450 3A4 = Cytochrome P450 3A4 (Homo sapiens, UniProt P08684); assay: Drug metabolism assessed as human CYP3A4-mediated compound formation from 20 uM [14C]boceprevir after 120 mins by LC-MS/FSA method relative to total [14C]boceprevir; format: ADME; settings: recombinant enzyme, 2 h
Cytochrome P450 3A5 = Cytochrome P450 3A5 (Homo sapiens, UniProt P20815); assay: Drug metabolism assessed as human CYP3A5-mediated compound formation from 20 uM [14C]boceprevir after 120 mins by LC-MS/FSA method relative to total [14C]boceprevir; format: ADME; settings: recombinant enzyme, 2 h
Cytochrome P450 2D6 = Cytochrome P450 2D6 (Homo sapiens, UniProt P10635); assay: Drug metabolism assessed as human CYP2D6-mediated compound formation from 5 uM [14C]boceprevir after 120 mins by LC-MS/FSA method relative to total [14C]boceprevir; format: ADME; settings: recombinant enzyme, 2 h
Cytochrome P450 2C19 = Cytochrome P450 2C19 (Homo sapiens, UniProt P33261); assay: Drug metabolism assessed as human CYP2C19-mediated compound formation from 5 uM [14C]boceprevir after 120 mins by LC-MS/FSA method relative to total [14C]boceprevir; format: ADME; settings: recombinant enzyme, 2 h
Cytochrome P450 1A2 = biological target: T1, Cytochrome P450 1A2 (Homo sapiens, UniProt P05177); assay: Drug metabolism assessed as human […]-mediated compound formation from 5 uM [14C]boceprevir after 120 mins by LC-MS/FSA method relative to total [14C]boceprevir; format: ADME; settings: recombinant enzyme, 2 h
T1 sequence (P05177 whole entry): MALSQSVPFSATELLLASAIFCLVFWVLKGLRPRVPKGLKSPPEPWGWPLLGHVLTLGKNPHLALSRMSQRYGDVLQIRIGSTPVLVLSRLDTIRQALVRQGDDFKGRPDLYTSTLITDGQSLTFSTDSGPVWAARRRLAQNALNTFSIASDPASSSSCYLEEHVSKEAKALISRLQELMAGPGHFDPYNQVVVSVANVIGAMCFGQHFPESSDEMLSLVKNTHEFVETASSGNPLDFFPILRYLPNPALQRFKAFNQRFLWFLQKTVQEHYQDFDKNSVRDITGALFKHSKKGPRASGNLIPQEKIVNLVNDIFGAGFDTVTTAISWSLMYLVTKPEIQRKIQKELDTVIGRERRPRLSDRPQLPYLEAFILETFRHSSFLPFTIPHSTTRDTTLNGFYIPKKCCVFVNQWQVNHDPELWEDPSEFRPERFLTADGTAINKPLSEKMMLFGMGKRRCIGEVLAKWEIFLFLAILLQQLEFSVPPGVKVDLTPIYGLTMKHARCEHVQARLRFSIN

Cytochrome P450 2B6 = biological target: T2, Cytochrome P450 2B6 (Homo sapiens, UniProt P20813); assay: Drug metabolism assessed as human CYP2B6-mediated compound formation from 5 uM [14C]boceprevir after 120 mins by LC-MS/FSA method relative to total [14C]boceprevir; format: ADME; settings: recombinant enzyme, 2 h
T2 sequence (P20813 whole entry): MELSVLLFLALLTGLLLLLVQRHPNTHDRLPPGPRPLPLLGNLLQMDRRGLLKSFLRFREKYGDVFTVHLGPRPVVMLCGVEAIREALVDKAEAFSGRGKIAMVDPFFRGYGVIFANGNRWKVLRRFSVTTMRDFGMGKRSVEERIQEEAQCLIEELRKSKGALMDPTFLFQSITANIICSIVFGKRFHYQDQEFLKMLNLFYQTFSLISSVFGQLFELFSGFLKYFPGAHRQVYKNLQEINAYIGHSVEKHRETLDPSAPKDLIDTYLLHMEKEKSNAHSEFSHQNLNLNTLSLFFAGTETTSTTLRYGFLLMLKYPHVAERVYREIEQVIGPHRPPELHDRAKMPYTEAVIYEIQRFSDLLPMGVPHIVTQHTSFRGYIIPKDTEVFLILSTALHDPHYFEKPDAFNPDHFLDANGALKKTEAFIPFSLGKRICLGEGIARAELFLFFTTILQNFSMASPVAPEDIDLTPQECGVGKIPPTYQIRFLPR

Cytochrome P450 4F3 = biological target: T3, Cytochrome P450 4F3 (Homo sapiens, UniProt Q08477); assay: Drug metabolism assessed as human CYP4F3A-mediated compound formation from 5 uM [14C]boceprevir after 120 mins by LC-MS/FSA method relative to total [14C]boceprevir; format: ADME; settings: recombinant enzyme, 2 h
T3 sequence (Q08477 whole entry): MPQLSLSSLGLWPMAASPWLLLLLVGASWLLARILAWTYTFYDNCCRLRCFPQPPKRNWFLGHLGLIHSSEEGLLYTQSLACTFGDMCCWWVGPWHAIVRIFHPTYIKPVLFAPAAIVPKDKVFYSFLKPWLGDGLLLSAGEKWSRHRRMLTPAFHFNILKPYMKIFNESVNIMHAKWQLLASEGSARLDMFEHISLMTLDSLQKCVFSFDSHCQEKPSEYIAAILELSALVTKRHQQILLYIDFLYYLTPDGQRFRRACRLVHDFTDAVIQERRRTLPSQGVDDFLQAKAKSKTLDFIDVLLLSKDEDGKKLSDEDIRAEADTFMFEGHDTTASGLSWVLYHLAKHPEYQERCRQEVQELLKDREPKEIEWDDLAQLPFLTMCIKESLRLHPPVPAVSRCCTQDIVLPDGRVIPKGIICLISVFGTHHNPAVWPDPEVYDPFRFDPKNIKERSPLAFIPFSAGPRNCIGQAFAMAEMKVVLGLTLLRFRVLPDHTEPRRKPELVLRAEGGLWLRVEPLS

Liver cytosol [2] = assay: Drug metabolism in human liver cytosol treated with 20 uM [14C]boceprevir assessed as IC50 for AKR inhibitor diflunisal-mediated metabolite formation after 60 mins by LC-MS/MS/FSA method; format: ADME, tissue-based; settings: 1 h
Liver cytosol [3] = assay: Drug metabolism in human liver cytosol treated with 20 uM [14C]boceprevir assessed as IC50 for AKR inhibitor ibuprofen-mediated metabolite formation after 60 mins by LC-MS/MS/FSA method; format: ADME, tissue-based; settings: 1 h

Chain of Cytochrome P450 2D6 (P10635 whole entry): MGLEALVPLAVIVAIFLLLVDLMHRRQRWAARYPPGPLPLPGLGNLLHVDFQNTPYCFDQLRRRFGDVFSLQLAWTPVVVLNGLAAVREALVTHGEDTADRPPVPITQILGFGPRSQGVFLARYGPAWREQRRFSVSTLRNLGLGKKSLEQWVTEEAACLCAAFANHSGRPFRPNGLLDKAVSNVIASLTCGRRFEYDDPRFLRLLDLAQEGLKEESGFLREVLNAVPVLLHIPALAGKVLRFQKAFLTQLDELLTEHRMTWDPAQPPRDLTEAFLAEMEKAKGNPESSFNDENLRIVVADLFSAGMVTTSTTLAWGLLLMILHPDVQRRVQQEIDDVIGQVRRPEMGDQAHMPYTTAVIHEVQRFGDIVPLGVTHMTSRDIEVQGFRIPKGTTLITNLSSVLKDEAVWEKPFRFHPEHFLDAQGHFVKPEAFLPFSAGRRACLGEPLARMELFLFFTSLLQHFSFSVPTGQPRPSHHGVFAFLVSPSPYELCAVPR
Chain of Cytochrome P450 3A4 (P08684 whole entry): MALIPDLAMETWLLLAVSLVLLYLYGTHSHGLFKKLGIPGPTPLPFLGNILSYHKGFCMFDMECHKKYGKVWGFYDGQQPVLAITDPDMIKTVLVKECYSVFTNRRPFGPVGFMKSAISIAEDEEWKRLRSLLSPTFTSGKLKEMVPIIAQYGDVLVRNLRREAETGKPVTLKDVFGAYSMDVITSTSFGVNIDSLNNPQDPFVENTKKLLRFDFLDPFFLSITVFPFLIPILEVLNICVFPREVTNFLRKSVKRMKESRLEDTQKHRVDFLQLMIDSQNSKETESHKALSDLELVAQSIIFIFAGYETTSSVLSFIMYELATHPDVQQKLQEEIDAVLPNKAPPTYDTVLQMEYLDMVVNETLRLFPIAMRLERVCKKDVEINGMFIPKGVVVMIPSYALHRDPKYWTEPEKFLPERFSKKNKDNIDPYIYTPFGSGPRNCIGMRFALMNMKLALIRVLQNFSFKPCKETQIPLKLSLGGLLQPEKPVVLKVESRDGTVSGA
Chain of Cytochrome P450 2C19 (P33261 whole entry): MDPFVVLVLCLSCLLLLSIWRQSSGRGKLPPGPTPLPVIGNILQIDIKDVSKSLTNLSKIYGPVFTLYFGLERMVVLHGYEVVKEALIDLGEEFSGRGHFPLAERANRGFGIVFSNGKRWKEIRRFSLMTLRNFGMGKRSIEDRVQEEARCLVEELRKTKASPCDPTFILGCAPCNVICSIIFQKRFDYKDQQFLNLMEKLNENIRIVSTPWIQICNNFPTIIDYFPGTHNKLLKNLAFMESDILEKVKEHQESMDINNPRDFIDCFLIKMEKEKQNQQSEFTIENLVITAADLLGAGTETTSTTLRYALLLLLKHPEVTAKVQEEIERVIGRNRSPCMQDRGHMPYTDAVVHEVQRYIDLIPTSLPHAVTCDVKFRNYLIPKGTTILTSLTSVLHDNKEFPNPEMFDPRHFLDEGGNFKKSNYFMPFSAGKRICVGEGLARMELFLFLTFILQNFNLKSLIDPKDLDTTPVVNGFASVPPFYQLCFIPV
Chain of Cytochrome P450 3A5 (P20815 whole entry): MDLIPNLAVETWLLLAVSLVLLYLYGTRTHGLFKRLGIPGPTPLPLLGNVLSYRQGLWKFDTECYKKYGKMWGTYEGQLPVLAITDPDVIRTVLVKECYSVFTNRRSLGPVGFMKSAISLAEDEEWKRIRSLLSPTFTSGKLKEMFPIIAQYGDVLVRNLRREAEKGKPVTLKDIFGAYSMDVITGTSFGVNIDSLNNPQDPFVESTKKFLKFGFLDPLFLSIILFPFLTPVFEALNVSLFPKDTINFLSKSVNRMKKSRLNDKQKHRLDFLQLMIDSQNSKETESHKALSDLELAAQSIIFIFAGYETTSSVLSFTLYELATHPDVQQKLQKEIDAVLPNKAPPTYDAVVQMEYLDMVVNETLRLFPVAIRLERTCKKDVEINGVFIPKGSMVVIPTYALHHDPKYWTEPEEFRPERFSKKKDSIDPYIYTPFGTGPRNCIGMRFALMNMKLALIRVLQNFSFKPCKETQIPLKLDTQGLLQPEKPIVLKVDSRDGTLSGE

Retention_time [1] | Compound recovery (Plasma) | Compound recovery (Liver microsome) | Compound recovery (Cytochrome P450 3A4) | Compound recovery (Cytochrome P450 3A5) | Compound recovery (Cytochrome P450 2D6) | Compound recovery (Cytochrome P450 2C19) | Compound recovery (Cytochrome P450 1A2) | Compound recovery (Cytochrome P450 2B6) | Compound recovery (Cytochrome P450 4F3) | Compound recovery (Cytochrome P450 3A4; BLD = below limit of detection) | Compound recovery (Cytochrome P450 3A5; BLD = below limit of detection) | IC50 (Liver cytosol [2]) | IC50 (Liver cytosol [3]) | SMILES
44.6 min | >= 50% | 17.42% | 18.98% | 19.67% | 31.66% | 30.71% | 31.72% | 33.77% | 34.35% | – | – | – | – | CC(C)(C)NC(=O)N[C@H](C(=O)N1C[C@H]2[C@@H]([C@H]1C(=O)N[C@H](CC1CCC1)C(=O)C(N)=O)C2(C)C)C(C)(C)C
40.1 min | >= 50% | 0.6% | – | – | 0.56% | 0.38% | 0.34% | 0.9% | 1.78% | BLD | BLD | 4.58 µM | 412 µM | CC(C)(C)NC(=O)N[C@H](C(=O)N1C[C@H]2[C@@H]([C@H]1C(=O)N[C@@H](CC1CCC1)[C@@H](O)C(N)=O)C2(C)C)C(C)(C)C
– | – | – | – | – | – | – | – | – | – | – | – | 4.58 µM | 412 µM | CC(C)(C)NC(=O)N[C@H](C(=O)N1C[C@H]2[C@@H]([C@H]1C(=O)NC(CC1CCC1)C(=O)C(N)=O)C2(C)C)C(C)(C)C (some centres undefined) [BOCEPREVIR]
